≈ marks a conversion by molar mass, not a printed value.
Key:
Escherichia coli [1] = assay: Antimicrobial activity against qnrS1-positive multidrug-resistant Escherichia coli isolate 3 expressing beta-lactamase CTX-M-15, gyrA S83L/D87N and parC S80I mutant by Etest
Escherichia coli [2] = assay: Antimicrobial activity against qnrS1-positive multidrug-resistant Escherichia coli isolate 4 expressing gyrA S83L/D87N and parC S80I mutants by Etest
Escherichia coli [3] = assay: Antimicrobial activity against qnrS1-positive ampicillin and amoxicillin-resistant Escherichia coli isolate 6 expressing gyrA S83L/D87N and parC S80I mutants by Etest
Escherichia coli [4] = assay: Antimicrobial activity against qnrS1-positive ampicillin-resistant Escherichia coli isolate 7 expressing gyrA S83L/D87N and parC S80I mutants by Etest
Escherichia coli [5] = assay: Antimicrobial activity against qnrS1-positive ampicillin-resistant Escherichia coli isolate 8 expressing gyrA S83L/D87N and parC S80I mutants by Etest
Escherichia coli [6] = assay: Antimicrobial activity against qnrS1-positive multidrug-resistant Escherichia coli isolate 9 expressing gyrA S83L/D87N and parC S80I mutants by Etest
Escherichia coli [7] = assay: Antimicrobial activity against qnrS1-positive multidrug-resistant Escherichia coli isolate 10 expressing gyrA S83L/D87N and parC S80I mutants by Etest
Escherichia coli [8] = assay: Antimicrobial activity against Escherichia coli harboring plasmid carrying qnrS1 gene by Etest

**Q.** How did the MIC (Escherichia coli [1]) turn out when O=C(O)c1cn(C2CC2)c2cc(N3CCNCC3)c(F)cc2c1=O [CIPROFLOXACIN] was run?
**A.** The MIC was 64 µg/mL (≈ 193 µM).

**Q.** And the MIC (Escherichia coli [2])?
**A.** The MIC was 64 µg/mL (≈ 193 µM).

**Q.** What about the MIC (Escherichia coli [3]) of the same molecule?
**A.** The MIC was 64 µg/mL (≈ 193 µM).

**Q.** And the MIC (Escherichia coli [4])?
**A.** The MIC was 128 µg/mL (≈ 386 µM).

**Q.** And the MIC (Escherichia coli [5])?
**A.** The MIC was 128 µg/mL (≈ 386 µM).

**Q.** What about the MIC (Escherichia coli [6]) of the same molecule?
**A.** The MIC was 128 µg/mL (≈ 386 µM).

**Q.** And the MIC (Escherichia coli [7])?
**A.** The MIC was 128 µg/mL (≈ 386 µM).

**Q.** What about the MIC (Escherichia coli [8]) of the same molecule?
**A.** Its MIC is 0.032 µg/mL (≈ 0.0966 µM).

From ChEMBL document CHEMBL1255378, “Emergence of the plasmid-mediated quinolone resistance gene qnrS1 in Escherichia coli isolates in Greece” (2008)
